Measurements from patent publication US7250269B2, “Composition for assaying glycoprotein” (Asahi Kasei Pharma Corporation, priority 2001, dated 2007).
Where two headings read alike, the source gives them in different places.

Assays:
Protease type-XXIV [1] = format: biochemical, Bacillus
Experimental: 5 g/dl HSA (LOT38H7601; manufactured by Sigma-Aldrich Co.)
8 μl of a sample was added to 240 μl of the proteolytic reagent incubated at 37° C. […] A relative sensitivity for the experiment using the reagent containing a stabilizer to the experiment using the reagent not containing a stabilizer was calculated assuming that ΔA0obtained using the reagent not containing a stabilizer and used without storing is 100%.

[2] = tested on: heat-stable type ascorbic acid oxidase (ASO-312); experiment: Effect of buffer agent types on stabilization of ascorbic acid oxidase ASO-312 in the presence of protease; format: biochemical; conditions: pH 8.0, stored two days at room temperature
Experimental: 1 ml of the above mixed reaction reagent is placed in a small test tube and preheated at 30° C. for five minutes, then 0.10 ml of an appropriately diluted enzyme solution is added. The mixture is stirred to initiate the reaction. After the reaction for exactly 5 minutes, 3.0 ml of 0.2 N hydrochloric acid aqueous solution is added to terminate the reaction. Absorbance (As) at a wavelength of 245 nm is measured. For the blank test, 1 ml of the above reaction solution is placed in a small test tube and preheated at 30° C. for five minutes, then 3.0 ml of 0.2 N hydrochloric acid aqueous solution is added to terminate the reaction. 0.10 ml of an appropriately diluted enzyme solution is added and the mixture is stirred to measure the absorbance (Ab) at a wavelength of 245 nm. The enzyme activity is determined from the difference (Ab-As) between the absorbance (As) after the enzyme reaction and the blank test absorbance (Ab). The amount of enzyme oxidizing 1 μmol of ascorbic acid into dehydroascorbic acid in one minute at 30° C. is defined as 1 U. The calculation formula is shown below. Activity (U/ml)=[(Ab−As)/10.0]×[⅕]×[4.10/0.10]×[1/B] • 10.0: Molecular absorbance coefficient (mM) of ascorbic acid at 245 nm under the conditions of pH 1.0. • 5: Reaction time (min) • 4.10: Total reaction solution (ml) • 0.10: Amount of enzyme sample solution used for the reaction • B: Dilution magnification of the enzyme solution
The above reaction solutions were prepared using various buffer agents. A portion of each solution was used as a control after measuring the ascorbic acid oxidase activity. The above-described <<Method for Measuring the Activity of Ascorbic Acid Oxidase (ASOx)>> was employed for the activity measurement. The remaining portion of reaction solutions was stored for two days at room temperature, and the activity was measured in the same manner. The ratio of the activity after storage for two days at room temperature to the activity of the control was calculated to compare the stability of ascorbic acid oxidases.

[3] = target: T1, Ascorbic acid oxidase (ASO-311) (Cucurbita maxima, UniProt P24792); conditions: pH 8.0, stored two days at room temperature
T1 sequence (P24792 31-579): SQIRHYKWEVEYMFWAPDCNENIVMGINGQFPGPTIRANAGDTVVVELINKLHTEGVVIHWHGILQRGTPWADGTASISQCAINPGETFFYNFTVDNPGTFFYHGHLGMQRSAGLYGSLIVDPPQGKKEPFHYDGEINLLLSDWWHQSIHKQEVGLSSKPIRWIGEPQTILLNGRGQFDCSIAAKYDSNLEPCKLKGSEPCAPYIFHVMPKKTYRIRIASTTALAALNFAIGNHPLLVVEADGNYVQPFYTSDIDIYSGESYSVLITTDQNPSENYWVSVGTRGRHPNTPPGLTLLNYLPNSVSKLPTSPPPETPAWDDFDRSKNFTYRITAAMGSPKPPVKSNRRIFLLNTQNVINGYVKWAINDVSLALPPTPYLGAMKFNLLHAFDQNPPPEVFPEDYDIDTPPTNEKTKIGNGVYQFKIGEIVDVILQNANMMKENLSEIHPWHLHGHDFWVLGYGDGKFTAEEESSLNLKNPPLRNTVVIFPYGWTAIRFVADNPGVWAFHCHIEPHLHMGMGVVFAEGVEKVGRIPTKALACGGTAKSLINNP

ASOx = experiment: Storage of ASOx with protease in HEPES buffer solution pH 8.0 (inventors' investigation); format: biochemical; conditions: pH 8.0, protease and ASOx present
Ascorbic acid oxidase = target: T2, Ascorbic acid oxidase (Cucurbita maxima, UniProt P24792); conditions: R-1 stored 24 hours at room temperature; FIG. 4
T2 sequence (P24792 31-579): T1 sequence (P24792 31-579)
Experimental: An ascorbic acid-addition substrate solution was prepared by adding one volume of ascorbic acid (1 g/dl) (manufactured by Kokusan Chemical Co., Ltd.) to nine volume of human pool blood serum. A solution prepared by adding distilled water instead of ascorbic acid was used as a control substrate solution.
8 μl of the control substrate solution or ascorbic acid-addition substrate solution was added to 240 μl of R-1 incubated at 37° C. The reaction was initiated at 37° C. and exactly 5 minutes thereafter 80 μl of R-2 was added. Absorbance at 555 nm was measured before the addition of R-2 and five minutes after the addition of R-2. ΔA0 was calculated by subtracting the absorbance change obtained from a blank sample using distilled water instead of the substrate solution from the absorbance change obtained from the absorbance measurement on the control substrate solution and ascorbic acid-addition substrate solution. The same reaction solution R-1 was stored at room temperature for 24 hours, and the absorbance was measured in the same manner to calculate ΔA24. The ratio of ΔA0 and ΔA24 obtained from the ascorbic acid-addition substrate solution was calculated assuming the absorbance change obtained from the control substrate solution as 100.

R-FOD-II = experiment: Stabilization of enzyme reacting at least with glycated amino acid; format: biochemical; conditions: for stabilization effect on glycated amino acid assay reagent (relative sensitivity): stored at 37° C. for two days, without stabilizer 30%, FIG. 6
Experimental: 8 μl of a sample was added to 240 μl of the proteolytic reagent incubated at 37° C. […] A relative sensitivity for the experiment using the reagent containing a stabilizer to the experiment using the reagent not containing a stabilizer was calculated assuming that ΔA0 obtained using the reagent not containing a stabilizer and used without storing is 100%.

Protease type-XXIV [4] = experiment: Screening of globulin component-selective protease inhibitors (HSA substrate with/without γ-globulin); format: biochemical, Bacillus; conditions: additive concentration 1.0%; control 23.8
Source text: Using protease type-XXIV (manufactured by Sigma-Aldrich Co.) having high reactivity with the HSA substrate solution, components that decrease the protease reaction with the above globulin substrate solutions were screened based on the HSA substrate solution.
In the R-1 proteolytic reagent, as the deoxycholic acid amide, bisgluconamidopropyldeoxycholamide was used; as the cholic acid amide, 3-[(3-cholamidopropyl)dimethvlammonio]propane sulfonic acid, 3-[(3-cholamidopropyl)dimethylammonio]-2-hydroxypropane sulfonic acid, or bisgluconamidopropylcholamide was used; as the quaternary ammonium salt, benzyltriethylan chloride or benzyltri-n-butylammonium chloride was used; and as quatemary ammonium salt-type cationic surfactant, lauryltrimethylammonium chloride or lauryldimethylamine oxide was used.
• 1. HSA substrate solution: Albumin Human: 40 mg/ml, GA %=10.5% [manufactured by Wako Pure Chemical Industries, Ltd., the albumin concentration in the substrate solution was assayed using an albumin assay kit (albumin II-HA Test Wako; manufactured by Wako Pure Chemical Industries, Ltd.). GA % was assayed using a glycated albumin analyzer (GAA-2000, manufactured by ARKRAY, Inc.). • 2. γ-globulin addition substrate solution, 17.0 mg/ml of γ-globulin [γ-Globulins Human (manufactured by Sigma-Aldrich Co.), Fructosamine value=34 μM] was added to the above HSA substrate solution. <Reaction Procedure>
Absorbances at a wavelength of 546 nm were measured before and after the addition of R-2. The difference of the two measurements was regarded as the absorbance change. The same procedure was conducted using distilled water instead of the substrate to prepare a blank sample. In addition, a reaction solution without the addition of the globulin-selective protease inhibitor was used as a control.
ΔA (HSA) was calculated by subtracting the absorbance change of the blank sample from the absorbance change obtained for the HSA substrate solution. ΔA(+γ-globulin) was calculated by subtracting the absorbance change of the blank sample from the absorbance change obtained for the substrate solution to which γ-globulin was added. Effect of γ-globulin addition=(ΔA(+γ-globulin)−ΔA(HSA))/ΔA(HSA)×100(%)

[5] = FOD enzyme activity / substrate specificity on glycated lysine; format: biochemical; conditions: glycated lysine / glycated valine
Experimental: 164 strains of mutant colonies obtained in Example 15 were cultured for 16 hours at 30° C. in 1.5 ml of a 3.7% BHI liquid medium (manufactured by DIFCO Co.) containing 50 μg/ml of ampicillin and 1 mM of IPTG. 1 ml of the culture broth was centrifuged (15,000 G for one minute at 4° C.) to collect cells. 200 μl of 10 mM Tris-HCl buffer solution (pH 8.0) was added to the collected cells. After crushing the cells using an ultrasonic breaker, the mixture was centrifuged (14,000 G for five minutes at 4° C.) to obtain a cell extract as a supernatant.
The glycated amino acid substrate specificity of FOD-mutated recombinant contained in the cell extract prepared in Example 16 was measured using the above-mentioned FOD enzyme activity measuring method.
Synthesis of an oligonucleotide having the base sequence of 1-27 in the sequence table Sequence ID No. 7 was consigned to an outside source (BEX Co., Ltd.). The oligonucleotide was subjected to the site-directed mutagenesis using the Mutan-K kit (manufactured by Takara Shuzo Co., Ltd.) according to the manual attached to the kit. The mutant gene obtained was incorporated again into the expression plasmid pTV119N, introduced into Escherichia coli host, and cultured at 30° C. for 16 hours in a 3.7% BHI liquid medium containing 50 μg/ml of ampicillin and 1 mM of IPTG to produce mutant FOD protein.

[6] = stored at 37° C. for 24 hours, without stabilizer 60%, FIG. 5
[7] = stored in a liquid state in a refrigerator

CCO [EtOH, Ethanol]
stabilization effect on proteolytic reagent (relative sensitivity) (Protease type-XXIV [1]): stabilization effect

O=P(O)(O)O [Phosphoric acid, phosphoric acid]
Relative activity (%) ASO-312 ([2]; Pronase): 108%
Relative activity (%) ASO-312 ([2]; Protease type XXIV): 86%
Relative activity (%) ASO-311 ([3]; Pronase): 88%
Relative activity (%) ASO-311 ([3]; Protease type XXIV): 77%

O=S(=O)(O)CCN1CCN(CCO)CC1 [HEPES]
Relative activity (%) ASO-312 ([2]; Pronase): 37%
Relative activity (%) ASO-312 ([2]; Protease type XXIV): 34%
ascorbic acid treating capability after storage (ASOx; one day at 37° C.): lost almost entirely
ascorbic acid treating capability after storage (ASOx; two weeks at 10° C.): lost almost entirely
Relative activity (%) ASO-311 ([3]; Pronase): 17%
Relative activity (%) ASO-311 ([3]; Protease type XXIV): 31%
ascorbic acid eliminating capability after storing (Ascorbic acid oxidase): almost no ascorbic acid eliminating capability

[Ca+2].[Cl-].[Cl-] [calcium chloride, Calcium chloride]
decrease in performance of proteolytic reagent (Protease type-XXIV [1]): almost no decrease in performance
stabilization effect on proteolytic reagent (relative sensitivity) (Protease type-XXIV [1]): stabilization effect
storage stability effect (Protease type-XXIV [1]): one year or more
stabilization effect on glycated amino acid assay reagent (relative sensitivity) (R-FOD-II): stabilization effect

O=S(=O)(O)CCCN1CCN(CCO)CC1 [EPPS]
Relative activity (%) ASO-312 ([2]; Pronase): 31%
Relative activity (%) ASO-312 ([2]; Protease type XXIV): 30%
Relative activity (%) ASO-311 ([3]; Pronase): 13%
Relative activity (%) ASO-311 ([3]; Protease type XXIV): 35%
ascorbic acid eliminating capability after storing (Ascorbic acid oxidase): almost no ascorbic acid eliminating capability

[Cl-].[Na+] [sodium chloride, Sodium chloride]
stabilization effect on proteolytic reagent (relative sensitivity) (Protease type-XXIV [1]; [6]): stabilization effect

C[C@H](CCC(=O)O)[C@H]1CC[C@H]2[C@@H]3[C@H](O)C[C@@H]4C[C@H](O)CC[C@]4(C)[C@H]3C[C@H](O)[C@]12C [Cholic acid]
Effect of γ-globulin (%) (Protease type-XXIV [4]): 23.0%

CCCCCCCCCCCC[N+](C)(C)[O-] [Lauryldimethylamine oxide]
Effect of γ-globulin (%) (Protease type-XXIV [4]): 17.8%

C[S+](C)[O-] [DMSO, Dimethylsulfoxide]
decrease in performance of proteolytic reagent (Protease type-XXIV [1]; storage for 4 weeks at 37° C.): almost no decrease in performance
decrease in performance of proteolytic reagent (Protease type-XXIV [1]; stored at 37° C. for 24 hours, FIG. 5): almost no decrease in performance
stabilization effect on proteolytic reagent (relative sensitivity) (Protease type-XXIV [1]; [6]): stabilization effect
storage stability effect (Protease type-XXIV [1]; [7]): one year or more

C[C@H](CCC(=O)NCCC[N+](C)(C)CCCS(=O)(=O)[O-])[C@H]1CC[C@H]2[C@@H]3[C@H](O)C[C@@H]4C[C@H](O)CC[C@]4(C)[C@H]3C[C@H](O)[C@]12C [3-[(3-cholamidopropyl)dimethylammonio]propane sulfonic acid]
Effect of γ-globulin (%) (Protease type-XXIV [4]): 17.9%

Triethanolamine lauryl sulfate [TEALS]
stabilization effect on proteolytic reagent (relative sensitivity) (Protease type-XXIV [1]; [6]): stabilization effect

NCC(=O)O [glycine, Glycine]
decrease in performance of glycated amino acid assay reagent (R-FOD-II; storage for four weeks at 37° C.): almost no decrease in performance
stabilization effect on glycated amino acid assay reagent (relative sensitivity) (R-FOD-II): stabilization effect
storage stability effect (R-FOD-II; [7]): one or more years
Kcat Reactivity ratio (a)/(b) [5]: 365

O=S(=O)(O)CC(O)CN1CCN(CCO)CC1 (centres unmarked) [HEPPSO]
Relative activity (%) ASO-312 ([2]; Pronase): 34%
Relative activity (%) ASO-312 ([2]; Protease type XXIV): 22%
Relative activity (%) ASO-311 ([3]; Pronase): 14%
Relative activity (%) ASO-311 ([3]; Protease type XXIV): 37%
ascorbic acid eliminating capability after storing (Ascorbic acid oxidase): almost no ascorbic acid eliminating capability

trishydroxymethylaminomethane
Relative activity (%) ASO-312 ([2]; Pronase): 62%
Relative activity (%) ASO-312 ([2]; Protease type XXIV): 44%
Relative activity (%) ASO-311 ([3]; Pronase): 55%
Relative activity (%) ASO-311 ([3]; Protease type XXIV): 52%
ascorbic acid eliminating capability after storing (Ascorbic acid oxidase): no change

N=C(N)NCCC[C@H](N)C(=O)O [Reactive 327th amino acid Arginine]
Reactivity ratio, glycated lysine / glycated valine [5]: 440

C[C@H](CCC(=O)N(CCCNC(=O)[C@H](O)[C@@H](O)[C@H](O)[C@H](O)CO)CCCNC(=O)[C@H](O)[C@@H](O)[C@H](O)[C@H](O)CO)[C@H]1CC[C@H]2[C@@H]3CC[C@@H]4C[C@H](O)CC[C@]4(C)[C@H]3C[C@H](O)[C@]12C [N,N-Bis(3-D-gluconamidopropyl)deoxycholamido]
Effect of γ-globulin (%) (Protease type-XXIV [4]): 19.9%

O=S(=O)(O)CC(O)CN1CCN(CC(O)CS(=O)(=O)O)CC1 (centres unmarked) [POPSO]
Relative activity (%) ASO-312 ([2]; Pronase): 80%
Relative activity (%) ASO-312 ([2]; Protease type XXIV): 56%
Relative activity (%) ASO-311 ([3]; Pronase): 80%
Relative activity (%) ASO-311 ([3]; Protease type XXIV): 62%
ascorbic acid eliminating capability after storing (Ascorbic acid oxidase): no change

CCCC[N+](CCCC)(CCCC)Cc1ccccc1.[Cl-] [Benzyltributylammonium chloride]
Effect of γ-globulin (%) (Protease type-XXIV [4]): 15.1%

C[C@H](CCC(=O)N(CCCNC(=O)[C@H](O)[C@@H](O)[C@H](O)[C@H](O)CO)CCCNC(=O)[C@H](O)[C@@H](O)[C@H](O)[C@H](O)CO)[C@H]1CC[C@H]2[C@@H]3[C@H](O)C[C@@H]4C[C@H](O)CC[C@]4(C)[C@H]3C[C@H](O)[C@]12C [N,N-Bis(3-D-gluconamidopropyl)cholamido]
Effect of γ-globulin (%) (Protease type-XXIV [4]): 21.0%

C[C@@H](O)[C@H](N)C(=O)O [Reactive 327th amino acid Threonine]
Reactivity ratio, glycated lysine / glycated valine [5]: 927

CCCCCCCCCCCC[N+](C)(C)C.[Cl-] [Lauryltrimethylammonium chloride]
Effect of γ-globulin (%) (Protease type-XXIV [4]): 16.7%

C[N+](C)(C)Cc1ccccc1.[Cl-] [Benzyltrimethylammonium chloride]
Effect of γ-globulin (%) (Protease type-XXIV [4]): 23.2%
